Source: patent US20150025131A1 (priority 2013, published 2015)
Values after ≈ are worked out from the molar mass of the structure shown. Read-outs that look alike come from different tables or passages of the source.

How the values were obtained:
[1] = MTT cytotoxicity assay, MDBK; type: cell-based, bovine; details: bovine, MDBK bovine kidney cells, 48 h incubation, read-out: Cytotoxicity (IC50 μg/mL) MDBK cells
Description: (§1) Cell cytotoxicity assay was performed using three different cell lines NIH 3T3 (mouse embryo, fibroblast cells), CC1 (rat, epithelial, liver cell) and MDBK (bovine kidney) cells using MTT (3-[4,5-dimethylthiazole-2-yl]-2,5-diphenyl-tetrazolium bromide) colorimetric assay. Briefly 3T3 were grown in DMEM, supplemented with 10% of fetal bovine serum (FBS), and 1% penicillin-streptomycin whereas CC1 (rat epithelial liver cells) were cultured in EMEM, 2 mM Glutamine, 1% Non-Essential Amino Acids (NEAA), 20 mM HEPES, 10% Foetal Bovine Serum (FBS) and 1% penicillin-streptomycin, and MDBK cells were grown in 10% of fetal bovine serum (FBS) in 75 cm^2 flask, and incubated in 5% CO2 incubator at 37° C. until they attain 70% confluency. Cells were then harvested by centrifuging at 200 g for 5 min at 25° C., counted using heamocytometer and their concentration was adjusted to 6×10^4 cells/mL. 100 μL of Cells were then plated in 96 well plate and incubated overnight. Next day the supernatant was carefully removed and 200 μL of fresh medium was added with three different concentration of compound (1, 10, 50) μg/mL. […] The extent of MTT reduction to formazan within cells was calculated by measuring the absorbance at 540 nm; using a micro plate reader (Spectra Max plus 340, Molecular Devices, Calif., USA). […] The percent inhibition was calculated by using the following formula: […]

MDBK bovine kidney cells = assay: MTT cytotoxicity assay, MDBK; type: cell-based
Description: as §1

[2] = tested on: knee joints of arthritic rats; assay: Adjuvant induced arthritis model, histopathology of knee joints (H & E); type: in vivo, Sprague Dawley rats; details: H & E staining
Description: All studies were carried out using Female Sprague Dawley (SD) rats weighing 150-250 gms. Animals were kept at 21±2° C. and on a 12-h light/dark cycle, received standardized pelleted diet and tap water. Experiments were performed under the ethical guidelines of the International Association for the study of pain in conscious animals. Each group contains 12 animals with randomly distributed weights into each treatment group.
Arthritis was induced by injecting freshly prepared 100 μL of 1 mg suspension of lyophilized Mycobacterium tuberculosis H37Ra (MT H37Ra; DIFCO Laboratories, Detroit, Mich., USA), subcutaneously at the rat tail base using sterile hypodermic needle. Inoculation was carried out under anesthesia with a combination of 20 mg/kg ketamine and 5 mg/kg xylazine, injected intraperitoneally. Compound and the reference drug were administered daily, intraperitoneally using sterile syringes. The positive control received vehicle (5% DMSO+PBS) or saline only; treatment groups received test compounds (25 mg/kg), whereas reference group received indomethacin (5 mg/kg). The doses of the test compounds were selected after preliminary dose finding studies. The treatment was started on the same day after vaccination.
The animals were sacrificed at the end of the experiment and samples were taken from the knee joints. Sample fixation were done using 10% formalin following decalcification. The samples were then processed, embedded, cut, mounted and stained with hematoxylin and eosin (H & E) dye for microscopic evaluation.

TNF-α production = TNF-α production from PMA differentiated, LPS activated THP-1 cells (ELISA); type: cell-based, human; details: Homo sapiens, 4 h, read-out: inhibition of TNF-α production (IC50)
Description: The symbol * and δ represents the P≦0.03 and P≦0.006, respectively.
FIG. 2 depicts the effect of pentoxyfillin (PTX) on TNF-α production (pg/mL) Human monocytic leukemia THP-1 cells were differentiated and activated with 20 ng/mL of PMA and 50 ng/mL of LPS, respectively and incubated with different concentrations of PTX for 4h, the supernatant was analyzed for the level of TNF-α by ELISA. The symbol * represents P≦of 0.03.
THP-1 (human monocytic leukemia) cells were maintained in RPMI-1640 supplemented with 10% FBS, 2 mmol/L glutamine, 5.5 mmol/L glucose, 50 μmol/L mercaptoethanol, 1 mmol/L sodium pyruvate, and 10 mmol/L HEPES and incubated at 37° C. in 5% CO2. Cells were grown in […] culture flask until they attained 70% confluency. Cells were then plated in 24-well tissue culture plates at a concentration of 2.5×10^5 cells/mL. Cells were differentiated into macrophages using PMA at a final concentration of 20 ng/mL and further incubated at 37° C. in 5% CO2 environment for 24 h. […] After addition of the compound cells were then incubated for 4 h for TNF-α production and 18 h for IL-1β production at 37° C. in 5% CO2. The supernatants were harvested and analyzed for the level of TNF-α and IL-1β, by human TNF-α and IL-1β Duo set ELISA kits, and according to the manufacturer's instructions.

IL-2 production = assay: IL-2 cytokine production; type: cell-based; details: read-out: IL-2 inhibition (IC50 μg/mL)
[3] = tested on: ROS production from PMA activated RAW. 267 cells (murine macrophages); assay: Lucigenin enhanced (myeloperoxidase independent) oxidative burst; type: cell-based; details: Mus musculus, Macrophage
Description: Intracellular effect was determined using human peripheral whole blood phagocytes and isolated neutrophils and from mice peritoneum macrophages, where luminol-enhanced chemillumenescence assay was applied. The effect on myeloperoxidase independent ROS production was determined using lucigenin on murine macrophages RAW.267 cells. […] Table 2. […] 267 cells (murine macrophages). DPI is used as standard drug. Reading presents mean±SD of three determinations.

With `COc1c(O)cc2oc(-c3ccc(O)c(O)c3)c(O)c(=O)c2c1O` [Patuletin, 3,5,7,3′,4′-pentahydroxy-6-methoxy flavones] as the compound, how does the IC50 at 48 h [1] read?
The IC50 at 48 h was 12.6 ± 0.4 µg/mL (≈ 37.9 µM).

And the “cytotoxicity on MDBK bovine kidney cells (in words)” value (MDBK bovine kidney cells)?
Its value is “no cytotoxicity”.

And the “histopathology of knee joints (in words) versus arthritic control rats” value [2]?
The value was “less infiltration of lymphocytes and minimal bone destruction”.

What about the “histopathology score of knee joints” value ([2]; normal control score 0, arthritic control score 4) of the same compound?
Its value is 2.

And the IC50 (TNF-α production)?
Its IC50 is 2.5 µg/mL (≈ 7.52 µM).

And the IC50 (IL-2 production)?
Its IC50 is 14.8 µg/mL (≈ 44.5 µM).

And the IC50 ([3]; compared to DPI as standard drug, read-out: inhibition of extracellular ROS species (IC50), unit inferred)?
Its IC50 is 0.3 µg/mL.

What about the IC50 ([3]; lucigenin enhanced, PMA activated RAW. 267 cells, read-out: Myeloperoxidase independent Oxidative Burst (IC50 μg/mL) on macrophages) of the same compound?
Its IC50 is 0.3 ± 0.03 µg/mL.
